Laboratory results as given in publication PMC9596378, “Discovery and molecular basis of subtype-selective cyclophilin inhibitors” (Nature Chemical Biology, 2022).
Read-outs that look alike come from different tables or passages of the source.

Key:
[1] = biological target: T1, NKTR (Homo sapiens, UniProt P30414); assay: Chymotrypsin coupled prolyl-isomerase assay; assay type: biochemical
T1 construct: NKTR (UniProtKB Entry P30414: residues 7–179); host or cells: E. coli BL21(DE3)
T1 sequence (P30414 7-179): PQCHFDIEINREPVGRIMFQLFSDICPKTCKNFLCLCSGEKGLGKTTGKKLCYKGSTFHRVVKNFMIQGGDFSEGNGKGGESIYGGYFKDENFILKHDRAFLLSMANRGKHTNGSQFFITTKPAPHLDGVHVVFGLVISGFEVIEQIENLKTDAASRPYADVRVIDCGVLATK
Experimental: Adapting a previously described protocol[51], with an Agilent Bravo Velocity 11 with a 384ST head, 90 µL assay buffer (25 mM HEPES pH 7.3, 100 mM NaCl, 0.01% Triton X-100) containing 5.28 nM cyclophilin was added into a flat, clear-bottom, black 384-well plate pre-chilled in a Corning CoolBox at 2–3 °C. Five microliters of compound pre-dissolved in 5% DMSO/assay buffer was then added to appropriate wells and incubated at 2–3 °C for 5 min. Five microliters of 0.5 mM α-chymotrypsin from bovine pancreas (Type II, lyophilized powder, Millipore-Sigma) in 20% 1 mM HCl/Assay Buffer was then added to each well and incubated at 2–3 °C for 5 min. […] Using the internal liquid handling system of the FLIPR, 1 µL 0.5 mM Suc-AAPF-AMC (Chymotrypsin Substrate II, Millipore-Sigma) dissolved in 0.55 M LiCl/2,2,2-trifluoroethanol was added to each well, which was then mixed for 5 s, followed by immediate fluorescence measurements every 1 s for 330 s using a 360–380 nm excitation LED module and a 400–460 nm emission filter. Final concentrations of the plate include 5 nM cyclophilin, 0.25% DMSO, 25 µM α-chymotrypsin, 5 µM Suc-AAPF-AMC. Raw fluorescence data was analyzed by non-linear regression analysis with Prism v.9 by fitting one-phase association curves to each well. Analyses were halted after the calculated maximum fluorescent value owing to observed fluorescent bleaching during the sustained fluorescent plateau. Rate constants calculated for each well (s^−1) were then normalized to substrate only (no prolyl-isomerase) and enzyme + substrate only controls. IC50 values were calculated as the value at which 50% inhibition was achieved on the non-linear regression fitted curve of each compound.

[2] = biological target: T2, PPIL1 (Homo sapiens, UniProt Q9Y3C6); assay: Chymotrypsin coupled prolyl-isomerase assay; assay type: biochemical; conditions: wild-type PPIL1; read-out: Wild-Type Cyclophilin Prolyl Isomerase Inhibition IC50 Values, PPIL1
T2 construct: PPIL1 (UniProtKB Entry Q9Y3C6: residues 1–166); made in house; host or cells: E. coli BL21(DE3)
T2 sequence (Q9Y3C6 1-166): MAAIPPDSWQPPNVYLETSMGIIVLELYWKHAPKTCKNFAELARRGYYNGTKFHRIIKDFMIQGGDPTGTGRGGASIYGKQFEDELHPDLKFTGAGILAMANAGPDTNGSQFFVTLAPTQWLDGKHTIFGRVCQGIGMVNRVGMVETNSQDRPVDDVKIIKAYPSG

[3] = biological target: T3, CypB (Homo sapiens, UniProt P23284); assay: biochemical; conditions: wild-type CypB; read-out: Wild-Type Cyclophilin Prolyl Isomerase Inhibition IC50 Values, CypB
T3 construct: PPIB (UniProtKB Entry P23284: residues 34–216); His6 with TEV site (2BT vector leader) (N); made in house; host or cells: E. coli BL21(DE3)
Procedure, shortened: (§1)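 5 nM Cyp, HEPES pH 7.3/NaCl/Triton buffer, 2–3 °C; cpd 5 min, chymotrypsin 25 µM 5 min, then Suc-AAPF-AMC 5 µM in LiCl/TFE. Kinetic fluorescence 330 s. Per-well rate constants, normalized, IC50 from nonlinear fit.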

[4] = biological target: T4, CypC (Homo sapiens, UniProt P45877); assay: Chymotrypsin coupled prolyl-isomerase assay; assay type: biochemical
T4 construct: PPIC (UniProtKB Entry P45877: residues 24–212); host or cells: E. coli BL21(DE3)
Procedure, shortened: as §1

[5] = biological target: T5, CypE (Homo sapiens, UniProt Q9UNP9); assay: Chymotrypsin coupled prolyl-isomerase assay; assay type: biochemical; conditions: wild-type CypE; read-out: Wild-Type Cyclophilin Prolyl Isomerase Inhibition IC50 Values, CypE
T5 construct: PPIE (UniProtKB Entry Q9UNP9: residues 131–301); host or cells: E. coli BL21(DE3)
Procedure, shortened: as §1

[6] = biological target: T6, CypA (Homo sapiens, UniProt P62937); assay: Chymotrypsin coupled prolyl-isomerase assay; assay type: biochemical; conditions: wild-type CypA; read-out: Wild-Type Cyclophilin Prolyl Isomerase Inhibition IC50 Values, CypA
T6 construct: PPIA (UniProtKB Entry P62937: residues 1–165); made in house; host or cells: E. coli BL21(DE3)
Procedure, shortened: as §1

[7] = biological target: T7, CypH (Homo sapiens, UniProt O43447); assay: Chymotrypsin coupled prolyl-isomerase assay; assay type: biochemical
T7 construct: PPIH (UniProtKB Entry O43447: residues 1–177); His6 with TEV site (2BT vector leader) (N); made in house; host or cells: E. coli BL21(DE3)
Procedure, shortened: as §1

[8] = biological target: T8, CypG (Homo sapiens, UniProt Q13427); assay: Chymotrypsin coupled prolyl-isomerase assay; assay type: biochemical
T8 construct: PPIG (UniProtKB Entry Q13427: residues 1–179); His6 with thrombin site (pET28a LIC leader) (N); host or cells: E. coli BL21(DE3)
T8 sequence (Q13427 1-179): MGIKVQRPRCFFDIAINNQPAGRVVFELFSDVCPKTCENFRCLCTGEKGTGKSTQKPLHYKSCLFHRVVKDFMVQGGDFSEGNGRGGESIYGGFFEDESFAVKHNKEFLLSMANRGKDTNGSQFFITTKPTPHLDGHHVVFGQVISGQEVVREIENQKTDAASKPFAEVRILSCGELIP
Procedure, shortened: as §1

T7 sequence (O43447 whole entry, the tested form may be a part): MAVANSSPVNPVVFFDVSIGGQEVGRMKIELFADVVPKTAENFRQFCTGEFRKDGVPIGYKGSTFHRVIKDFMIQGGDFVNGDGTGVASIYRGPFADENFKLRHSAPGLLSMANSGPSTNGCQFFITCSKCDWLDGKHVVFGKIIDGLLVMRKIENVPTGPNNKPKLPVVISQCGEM
T4 sequence (P45877 24-212): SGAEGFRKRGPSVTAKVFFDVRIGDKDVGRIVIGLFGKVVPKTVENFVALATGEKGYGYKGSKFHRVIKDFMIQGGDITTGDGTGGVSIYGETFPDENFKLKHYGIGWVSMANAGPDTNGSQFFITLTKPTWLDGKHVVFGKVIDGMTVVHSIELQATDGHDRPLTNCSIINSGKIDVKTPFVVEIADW
T6 sequence (P62937 whole entry, the tested form may be a part): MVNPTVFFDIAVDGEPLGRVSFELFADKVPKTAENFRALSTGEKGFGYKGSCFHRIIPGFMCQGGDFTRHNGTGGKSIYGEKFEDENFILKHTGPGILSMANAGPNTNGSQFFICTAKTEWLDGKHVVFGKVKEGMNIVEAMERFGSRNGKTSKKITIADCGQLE
T3 sequence (P23284 34-216): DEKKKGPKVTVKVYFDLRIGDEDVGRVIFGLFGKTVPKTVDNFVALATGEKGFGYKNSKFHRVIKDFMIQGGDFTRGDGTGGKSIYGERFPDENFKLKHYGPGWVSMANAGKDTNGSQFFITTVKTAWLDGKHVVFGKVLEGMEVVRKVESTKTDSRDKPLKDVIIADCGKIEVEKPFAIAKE
T5 sequence (Q9UNP9 131-301): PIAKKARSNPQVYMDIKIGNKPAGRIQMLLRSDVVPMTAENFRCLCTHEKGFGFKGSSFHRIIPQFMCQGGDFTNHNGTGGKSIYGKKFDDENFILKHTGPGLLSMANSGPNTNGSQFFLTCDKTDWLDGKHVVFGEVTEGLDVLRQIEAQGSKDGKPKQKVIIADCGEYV

- IC50 ([1]; prolyl-isomerase inhibition, 5 nM cyclophilin, read-out: IC50 NKTR): ~7 µM
- IC50 ([1]; wild-type NKTR, read-out: Wild-Type Cyclophilin Prolyl Isomerase Inhibition IC50 Values, NKTR): 7 µM
- IC50 [2]: 4 µM
- IC50 [3]: 0.4 µM
- IC50 ([4]; prolyl-isomerase inhibition, 5 nM cyclophilin, read-out: IC50 CypC): ~5 µM
- IC50 ([4]; wild-type CypC, read-out: Wild-Type Cyclophilin Prolyl Isomerase Inhibition IC50 Values, CypC): 5 µM
- IC50 [5]: 1 µM
- IC50 [6]: 0.19 µM
- IC50 ([7]; prolyl-isomerase inhibition, 5 nM cyclophilin, read-out: IC50 CypH): ~10 µM
- IC50 ([7]; wild-type CypH, read-out: Wild-Type Cyclophilin Prolyl Isomerase Inhibition IC50 Values, CypH): 10 µM
- IC50 ([8]; prolyl-isomerase inhibition, 5 nM cyclophilin, read-out: IC50 CypG): ~10 µM
- IC50 ([8]; wild-type CypG, read-out: Wild-Type Cyclophilin Prolyl Isomerase Inhibition IC50 Values, CypG): 10 µM
Structure (SMILES): C[N+]1=C(C=CC=CC=C2N(CCCCCC(=O)NCCNC(=O)C3CCNC(=O)C=CC(=O)N4CCCC(Cc5ccccc5)(C4)C(=O)NC(Cc4ccc(-c5ccc(CC(C(=O)O)C(=O)O)cc5)cc4)C(=O)NCc4ccccc4CC(=O)N3)c3ccccc3C2(C)C)C(C)(C)c2ccccc21 (stereo not drawn) [Compound B52-Cy5]
